Literature values as cited in patent US20040116402A1, “Superoxide dismutase mimics for the treatment of ocular disorders and diseases” (priority 2002, published 2004).

Legend:
[1] = system: diabetic rats
[2] = system: autoimmune diabetes by a diabetogenic T-cell clone; conditions: in a cloned cell (diabetogenic T-cell clone adoptive transfer)
[3] = system: albino rats

SMILES: [Cl-].[Cl-].[Mn+2].c1cc2nc(c1)CN[C@@H]1CCCC[C@H]1NCCN[C@@H]1CCCC[C@H]1NC2 [M40403]
- vascular and neural dysfunction [1]: prevented vascular and neural dysfunction

SMILES: CCN1C=CC=C/C1=C1/C2=NC(=C(c3cccc[n+]3CC)C3=NC(=C(c4cccc[n+]4CC)c4ccc([n-]4)C(c4cccc[n+]4CC)=C4C=CC1=N4)C=C3)C=C2.[Cl-].[Cl-].[Cl-].[Cl-].[Cl-].[Mn+3] [AEOL10113]
- onset of diabetes [2]: delay the onset of diabetes

SMILES: CC1(C)CC(O)CC(C)(C)N1[O] [4-hydroxy-2,2,6,6-tetramethylpiperidine-1-oxyl]
- light-induced retinal damage [3]: inhibited light-induced retinal damage
